This assay has as its system 11-bp DNA: ds(CCAAT CGA CCC). In words: SURFS force spectrum of drug-bound DNA duplex (dissociation voltage). As to conditions: daunomycin-11-bp DNA vs 12-bp DNA. It counts as binding. As to the method: A piezo plate was placed on a piece of rubber. On top of the piezo, a water reservoir was constructed. The sample was mounted on a glass rod for scanning. The bottom of the sample, which contains the immobilized molecular system, makes contact with the water surface prior to ultrasound application. The water level was carefully monitored to be constant during experiment. […] A DNA duplex with 12-basepair (bp) was used to calculate the force resolution. The dissociation voltage was determined to be 0.204 V on the function generator, with ±0.001 V resolution. […] Because the acoustic radiation force is proportional to the ultrasound power, or V^2, the force resolution can be calculated as δF=(2δV/V)*F=(2*0.001/0.204)*45=0.5 pN (1)
In FIG. 4a, the force spectra of 12-bp DNA and daunomycin bound 11-bp DNA are compared. The two dissociation voltages were well distinguished, with the former at 0.204 V and the latter at 0.226 V. However, previous techniques of the prior art cannot distinguish the two forces, which are 45^±2 and 48^±2 pN respectively.

The structures appear in SMILES notation.

The source of these data is patent US12085534B2, “Multiplexable super-resolution force spectroscopy using ultrasound methods and magnetic detection” (University of Houston System, priority 2018, dated 2024).

With `COc1cccc2c1C(=O)c1c(O)c3c(c(O)c1C2=O)C[C@@](O)(C(C)=O)C[C@@H]3O[C@H]1C[C@H](N)[C@H](O)[C@H](C)O1` [daunomycin], the “binding strength compared with 12-bp DNA” value is “stronger than 12-bp DNA”.
